Assay results taken from PubChem BioAssay AID1963982 (Molecular Pharmacology Branch, DTP, NCI, 2024).

System: 313798-341-R-J2-PDC spheroids, viability
Experiment: Anticancer human tumor 313798-341-R-J2-PDC patient-derived cervical squamous cell carcinoma cell line growth inhibition [PI3K]
Conditions: spheroids with HUVEC and MSC; for IC50: curve of first compound; for viability, T/C: stronger effect = lower value; active = viability on the fitted dose curve at most 10% of control; inactive = the rest
Method in brief: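 Three cell types, namely tumor cells, endothelial cells and mesenchymal stem cells, formed each spheroid. Combinations with four PI3K inhibitors were screened at clinically achievable concentrations decreasing by half-log, and spheroid viability was recorded.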

[1] = second compound 0.00316 µM, first compound 0.0316 µM
[2] = second compound 0.00316 µM, first compound 0.1 µM
[3] = second compound 0.01 µM, first compound 0.0316 µM
[4] = second compound 0.01 µM, first compound 0.1 µM
[5] = second compound 0.0316 µM, first compound 0.0316 µM
[6] = second compound 0.0316 µM, first compound 0.1 µM
[7] = second compound 0.1 µM, first compound 0.0316 µM
[8] = second compound 0.1 µM, first compound 0.1 µM
[9] = second compound 0.316 µM, first compound 0.0316 µM
[10] = second compound 0.316 µM, first compound 0.1 µM
[11] = second compound 1 µM, first compound 0.0316 µM
[12] = second compound 1 µM, first compound 0.1 µM
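Note: spheroids exposed to compounds for seven days.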
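Throughout, for viability, T/C: 100% = DMSO vehicle control viability.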

CC(C)n1nc(-c2ccc3oc(N)nc3c2)c2c(N)ncnc21 + COc1c(OCCCN2CCOCC2)ccc2c3n(c(=NC(=O)c4cnc(N)nc4)nc12)CCN3
59.1 nM: IC50 (second compound 0.00316 µM)
< 0.316 nM: IC50 (second compound 0.1 µM) | IC50 (second compound 0.316 µM) | IC50 (second compound 1 µM)
48.8 nM: IC50 (second compound 0.01 µM)
18 nM: IC50 (second compound 0.0316 µM)
inactive: viability, T/C (second compound 0.00316 µM, first compound 0.000316 µM) 94.2% | viability, T/C (second compound 0.00316 µM, first compound 0.001 µM) 99% | viability, T/C (second compound 0.00316 µM, first compound 0.00316 µM) 97.3% | viability, T/C (second compound 0.00316 µM, first compound 0.01 µM) 84% | viability, T/C [1] 62.8% | viability, T/C [2] 39.6% | viability, T/C (second compound 0.01 µM, first compound 0.000316 µM) 98.1% | viability, T/C (second compound 0.01 µM, first compound 0.001 µM) 83.9% | viability, T/C (second compound 0.01 µM, first compound 0.00316 µM) 83.3% | viability, T/C (second compound 0.01 µM, first compound 0.01 µM) 74% | viability, T/C [3] 59.6% | viability, T/C [4] 35.4% | viability, T/C (second compound 0.0316 µM, first compound 0.000316 µM) 72.1% | viability, T/C (second compound 0.0316 µM, first compound 0.001 µM) 72.2% | viability, T/C (second compound 0.0316 µM, first compound 0.00316 µM) 85.8% | viability, T/C (second compound 0.0316 µM, first compound 0.01 µM) 52% | viability, T/C [5] 44.3% | viability, T/C [6] 23.6% | viability, T/C (second compound 0.1 µM, first compound 0.000316 µM) 41.4% | viability, T/C (second compound 0.1 µM, first compound 0.001 µM) 39.7% | viability, T/C (second compound 0.1 µM, first compound 0.00316 µM) 40.2% | viability, T/C (second compound 0.1 µM, first compound 0.01 µM) 31.8% | viability, T/C [7] 23.9% | viability, T/C [8] 13.4% | viability, T/C (second compound 0.316 µM, first compound 0.000316 µM) 17.7% | viability, T/C (second compound 0.316 µM, first compound 0.001 µM) 17.5% | viability, T/C (second compound 0.316 µM, first compound 0.00316 µM) 15.3% | viability, T/C (second compound 0.316 µM, first compound 0.01 µM) 13.8% | viability, T/C [9] 14.3% | viability, T/C [10] 8.89% | viability, T/C (second compound 1 µM, first compound 0.000316 µM) 13.2% | viability, T/C (second compound 1 µM, first compound 0.001 µM) 10.9% | viability, T/C (second compound 1 µM, first compound 0.00316 µM) 10.3% | viability, T/C (second compound 1 µM, first compound 0.01 µM) 12.2% | viability, T/C [11] 12.9% | viability, T/C [12] 8.5%

CCCS(=O)(=O)Nc1ccc(F)c(C(=O)c2c[nH]c3ncc(-c4ccc(Cl)cc4)cc23)c1F + COc1c(OCCCN2CCOCC2)ccc2c3n(c(=NC(=O)c4cnc(N)nc4)nc12)CCN3
inactive: viability, T/C [1] 109% | viability, T/C [2] 98.6% | viability, T/C (second compound 0.00316 µM, first compound 0.316 µM) 99.6% | viability, T/C (second compound 0.00316 µM, first compound 1 µM) 92.3% | viability, T/C (second compound 0.00316 µM, first compound 3.16 µM) 95.5% | viability, T/C (second compound 0.00316 µM, first compound 10 µM) 15.7% | viability, T/C [3] 89.1% | viability, T/C [4] 96.2% | viability, T/C (second compound 0.01 µM, first compound 0.316 µM) 103% | viability, T/C (second compound 0.01 µM, first compound 1 µM) 98.6% | viability, T/C (second compound 0.01 µM, first compound 3.16 µM) 97.1% | viability, T/C (second compound 0.01 µM, first compound 10 µM) 12.5% | viability, T/C [5] 68.7% | viability, T/C [6] 94.1% | viability, T/C (second compound 0.0316 µM, first compound 0.316 µM) 86.5% | viability, T/C (second compound 0.0316 µM, first compound 1 µM) 83.8% | viability, T/C (second compound 0.0316 µM, first compound 3.16 µM) 78.1% | viability, T/C (second compound 0.0316 µM, first compound 10 µM) 12% | viability, T/C [7] 47.9% | viability, T/C [8] 54.2% | viability, T/C (second compound 0.1 µM, first compound 0.316 µM) 48.4% | viability, T/C (second compound 0.1 µM, first compound 1 µM) 41.4% | viability, T/C (second compound 0.1 µM, first compound 3.16 µM) 33.9% | viability, T/C (second compound 0.1 µM, first compound 10 µM) 15.7% | viability, T/C [9] 16.7% | viability, T/C [10] 18.7% | viability, T/C (second compound 0.316 µM, first compound 0.316 µM) 19.1% | viability, T/C (second compound 0.316 µM, first compound 1 µM) 20.5% | viability, T/C (second compound 0.316 µM, first compound 3.16 µM) 22.4% | viability, T/C (second compound 0.316 µM, first compound 10 µM) 12.7% | viability, T/C [11] 13.2% | viability, T/C [12] 12.4% | viability, T/C (second compound 1 µM, first compound 0.316 µM) 14.6% | viability, T/C (second compound 1 µM, first compound 1 µM) 14.3% | viability, T/C (second compound 1 µM, first compound 3.16 µM) 19.8% | viability, T/C (second compound 1 µM, first compound 10 µM) 9.24%
6100 nM: IC50 (second compound 0.00316 µM)
110 nM: IC50 (second compound 0.1 µM)
5160 nM: IC50 (second compound 0.0316 µM)
< 31.6 nM: IC50 (second compound 0.316 µM) | IC50 (second compound 1 µM)
5990 nM: IC50 (second compound 0.01 µM)
